Columns and labels:
[1] = Time required for oxidation by air to regenerate the quinone form; assay type: physicochemical; conditions: 38° C., leucoanthraquinonesulfonate 0.04 mol/l, NaOH 0.08 mol/l
Method: (§1) Easiness in oxidation-reduction of these compounds is evaluated by their standard oxidation-reduction potential and their oxidation and reduction rates.
**Air was absorbed at 38° C. in an aqueous solution containing a
given leucoanthraquinonesulfonate (0.04 mol/l) and sodium hydroxide (0.08
mol/l) under agitation whereby the time required for finishing the
airabsorption was measured.

[2] = Test for absorbing hydrogen sulfide according to the Stretford process (wet desulfurization)
Excerpt: In view of the solubility and oxidation-reduction characteristics above described, the anthraquinone compounds of the general formulas (I) and (II) are expected to exert an equivalent performance to anthraquinone-2,7-disulfonate as an oxidation-reduction reagent used for the Stretford process. […] The results of the test are given in Examples 11-17. The compounds of the general formulas (I) and (II) exerted in the Stretford process an equivalent desulfurization performance to anthraquinone-2,7-disulfonates. In other words, these anthraquinone compounds are quite equivalent to or somewhat better than anthraquinone-2,7-disulfonate in elimination rate of hydrogen sulfide (desulfurization ratio), a conversion rate of the absorbed hydrogen sulfide to elemental sulfur and a concentration of the residual hydrogen sulfide in the refined gas.
(§2) An absorption column was prepared by charging a glass tube (with a jacket) of 10 cm in inner diameter and 100 cm in length with a basket type filler of polypropylene (Tellerette S available from Nittetsu Kakoki KK, Japan) with a diameter of 1 cm up to a height of 95 cm. A hydrogen sulfide-containing gas prepared by mixing a gas composed of 6% carbon dioxide and 94% nitrogen with hydrogen sulfide in an amount of 5 g/Nm^2 was introduced at a flow rate of 230 l/hr. into the absorption column from the bottom thereof. On the other hand, an alkaline aqueous solution containing 0.03 mol/l of sodium metavanadate and 0.005 mol/l of sodium 2-carboxyanthraquinonemonosulfonate, which had been adjusted to have a pH value of 9 by addition of sodium carbonate and was kept at 40° C. was sprayed at a rate of 4.6 l/hr. into the absorption column from the top thereof whereby the hydrogen sulfide-containing gas was brought in the column into contact with the alkaline aqueous solution.
A gas/liquid ratio in this case was 0.02. From the lower part of the absorption column, the liquid was discharged and conveyed into a regeneration column made of a glass tube (with a jacket) of 10 cm in inner diameter and 100 cm in length where elementary sulfur was completely precipitated from the liquid by blowing air thereinto. A residence time of the liquid in the regeneration column was 20 minutes.
as §2, with “lenght” for “length”, “S)” for “S available from Nittetsu Kakoki KK, Japan)”, “g/Nm^3” for “g/Nm^2”, “2-phenoxyanthraquinonetrisulfonate,” for “2-carboxyanthraquinonemonosulfonate,”, “solution. A gas/liquid ratio in this case was 0.02. From the lower part of the absorption column, the liquid was discharged and conveyed into a regeneration column made of a glass tube (with a jacket) of 10 cm in inner diameter and 100 cm in length where elementary sulfur was completely precipitated from the liquid by blowing air thereinto. A residence time of the liquid in the regeneration column was 20 minutes.” for “solution.”
An absorption column was prepared by charging a glass tube (with a jacket) of 10 cm in inner diameter and 100 cm in length with a basket type filler of polypropylene (Tellerett S) with a diameter of 1 cm up to a height of 95 cm. […]

[3] = Time required for being reduced to the leuco form by sodium vanadite; assay type: physicochemical; conditions: 38° C., nitrogen, sodium vanadite 0.02 mol/l, anthraquinonesulfonate 0.04 mol/l, NaOH 0.04 mol/l
Method: as §1

[4] = Standard oxidation-reduction potential Eo; assay type: physicochemical; conditions: for Standard oxidation-reduction potential Eo: 25° C.; for oxidation-reduction characteristics compared with anthraquinone-2,7-disulfonate (in words): from Table 2 (reaction rates and Eo)
Method: as §1

[5] = Solubility (g/l, 25° C.) in alkaline inorganic salt solutions and water; conditions: for Solubility: 25° C.
[6] = basic aqueous solution used in the Stretford process; background statement; cited from earlier work
[7] = pH of solution in pure water; assay type: physicochemical
[8] = Examples 11-12: 0.005 mol/l reagent, 0.03 mol/l sodium metavanadate, pH 9, 40° C., H2S gas 230 l/hr, liquid 4.6 l/hr
[9] = 20g Na2 CO3 + 300g Na2 S2 O3 in 1 liter of water
[10] = 20g Na2 CO3 + 300g NaSCN in 1 liter of water
[11] = Mixed aqueous solution: 20 g/l sodium carbonate, 50 g/l sodium sulfate, 100 g/l sodium thiosulfate, 150 g/l sodium thiocyanate
[12] = Examples 13-15: 0.005 mol/l reagent, 0.03 mol/l sodium metavanadate, pH 9, 40° C., H2S gas 5 g/Nm^3, 230 l/hr
[13] = practical use, Stretford process
[14] = Example 17: same manner as described in Example 13 (so in the source)

Compound | Time required for oxidation to regenerate the quinone form [1] [min] | desulfurization ratio [2, 8] | Time required for reduction to the leuco form [3] [min] | Standard oxidation-reduction potential Eo [4] [V] | Solubility [5, 9] [g/L] | Solubility [5, 10] [g/L] | Solubility [5, 11] [g/L] | Solubility ([5]; Water) [g/L] | desulfurization ratio [2, 12] | further results
O=C1c2ccc(S(=O)(=O)[O-])cc2C(=O)c2cc(S(=O)(=O)[O-])ccc21.[Na+].[Na+] [reference compound] | 15 | 99.6% | 5 | 0.29 | 10 | 8 | 5 | 305 |  | 
O=C1c2ccc(S(=O)(=O)[O-])cc2C(=O)c2ccc(S(=O)(=O)[O-])cc21.[Na+].[Na+] [reference compound] |  |  |  |  | < 1 | < 1 | < 1 | 39 |  | 
Sodium 2-phenoxyanthraquinonetetrasulfonate | 15 |  | 5 | 0.28 | > 300 | > 200 | > 200 | > 600 | at least 99.7% | oxidation-reduction characteristics compared with anthraquinone-2,7-disulfonate (in words) [4]: very similar in oxidation-reduction characteristics to sodium anthraquinone-2,7-disulfonate
ammonium 2-phenoxyanthraquinonetetrasulfonate |  |  |  |  |  |  |  |  | at least 99.7% | 
potassium 2-carboxyanthraquinonemonosulfonate |  | at least 99.7% |  |  |  |  |  |  |  | 
potassium 2-phenoxyanthraquinonetetrasulfonate |  |  |  |  |  |  |  |  | at least 99.7% | 
O=C1c2ccccc2C(=O)c2cc(Oc3ccc(S(=O)(=O)O)cc3S(=O)(=O)O)ccc21 [sodium 2-phenoxyanthraquinone-2',4'-disulfonate, reference compound] |  |  |  |  |  |  |  |  |  | suitability for use in the Stretford process (in words) ([2]; Stretford process): unsuited for use in the Stretford process; capturing rate for hydrogen sulfide (in words) [2, 13]: inferior; oxidation efficiency of hydrogen sulfide to elemental sulfur (in words) [2, 13]: inferior; standard oxidation-reduction potential ([4]; temperature not given): 0.21 V
potassium 2-phenoxyanthraquinonetrisulfonate |  |  |  |  |  |  |  |  | at least 99.7% | 
sodium 2-phenoxyanthraquinonetrisulfonate | 15 |  | 5 | 0.27 | > 200 | > 100 | > 100 | > 400 | ≥ 99.7% | quantity of sulfur recovered, % of hydrogen sulfide contained in the feed gas ([2]; Example 13: 0.005 mol/l reagent, 0.03 mol/l sodium metavanadate, pH 9, 40° C.): 97%; desulfurization ratio [2, 14]: at least 99.7%; oxidation-reduction characteristics compared with anthraquinone-2,7-disulfonate (in words) [4]: very similar in oxidation-reduction characteristics to sodium anthraquinone-2,7-disulfonate
ammonium 2-carboxyanthraquinonemonosulfonate |  | at least 99.7% |  |  |  |  |  |  |  | 
O=C1c2ccc(S(=O)(=O)O)cc2C(=O)c2ccc(S(=O)(=O)O)cc21 [anthraquinone-2,6-disulfonic acid] |  |  |  |  |  |  |  |  |  | solubility (in words) [6]: very poor solubility
sodium 2-carboxyanthraquinonetetrasulfonate |  |  |  |  |  |  |  |  |  | desulfurization ratio [2, 14]: at least 99.7%
sodium 2-carboxyanthraquinonemonosulfonate | 15 | ≥ 99.7% | 5 | 0.29 | 38 | 25 | 15 | 12 |  | quantity of sulfur recovered, % of hydrogen sulfide contained in the feed gas ([2]; Example 11: 0.005 mol/l reagent, 0.03 mol/l sodium metavanadate, pH 9, 40° C.): 97%; pH of the solution [7]: 3-4; oxidation-reduction characteristics compared with anthraquinone-2,7-disulfonate (in words) [4]: very similar in oxidation-reduction characteristics to sodium anthraquinone-2,7-disulfonate; solubility as disodium salt ([5]; neutral or weakly alkaline solution, as disodium salt): ≥ 200 g/L
